# How the values were obtained:
# [1] = test system: Hordeum leporinum; test: Field plot evaluation of biomass reduction and seedhead suppression in Hordeum leporinum (wild barley), post-emergence in an imidazolinone-tolerant crop; format: in vivo; details: 28 g/ha; for Seed Head Red. Observed: seedhead count vs untreated plot; for Bio. Red. Observed: visual rating vs untreated plots, average of 4 replicates
# Protocol: (§1) In the following examples, synergism is determined by the Colby (Colby, S. R., Weeds, 1967(15), p. 20-22) method, i.e. the expected (or predicted) response of the combination is calculated by taking the product of the observed response for each individual component of the combination when applied alone divided by 100 and subtracting this value from the sum of the observed response for each component when applied alone. Synergism of the combination is then determined by comparing the observed response of the combination to the expected (or predicted) response as calculated from the observed responses of each individual component alone. If the observed response of the combination is greater than the expected (or predicted) response then the combination is said to be synergistic.
# All trials employ standard accepted weed science procedures. Applications are made to 2×10M plots with a propane gas-powered small plot boomspray applicator. Test design is a modified randomized complete block design with four replications. Applications are made at 2-6 weeks after the imidazolinone-tolerant crop is sown.
# In this evaluation biomass reduction is determined by visually rating the numbers and bulk of Hordeum leporinum in the treatment plots as compared to the numbers and bulk in the untreated plots. Seedhead suppression is measured by counting the seedheads of Hordeum leporinum in each of the treated plots and comparing to the number of seedheads in the untreated plot.
# The test solutions are prepared by tank-mixing commercial formulations. All treatments also contain 0.5% v/v of an ethoxylated vegetable oil.
# The treated plots are examined at intervals during the growing season and rated for percent biomass reduction and percent seedhead suppression. The data shown are an average of the replicates for that treatment. The Colby method of analysis is used to determine the resultant biological effect of the combination treatment as compared to the biological effect of each component when applied alone.
# [2] = test system: Bromus diandrus; test: Field plot evaluation of density reduction in Bromus diandrus (great bromegrass); format: in vivo; details: 28 g/ha, weed count vs untreated plot
# Protocol: as §1
# All trials employ standard accepted weed science procedures. Applications are made to 2×10M plots with a propane gas-powered small plot boomspray applicator. Test design is a modified randomized complete block design with four replications. Applications are made at 2-6 weeks after the imidazolinone-tolerant crop is sown. […]
# Using essentially the same procedure and test solutions described in Example 1, the following evaluation is carried out. In this evaluation, density reduction is measured by counting the Bromus diandrus weeds in the treated plots and comparing the count to that of the untreated plot. […]
SMILES,Seed Head Red. Observed [1],Bio. Red. Observed [1],Density Red. Obs. [2]
"COCc1cnc(C2=NC(C)(C(C)C)C(=O)N2)c(C(=O)O)c1 (stereo not drawn) [imazamox, 2-(4-isopropyl-4-methyl-5-oxo-2-imidazolin-2-yl)-5-(methoxymethyl)-nicotinic acid]",76.33%,80%,98.96%
"Cc1cnc(C2=NC(C)(C(C)C)C(=O)N2)c(C(=O)O)c1 (stereo not drawn) [imazapic, 2-(4-isopropyl-4-methyl-5-oxo-2-imidazolin-2-yl)-5-methylnicotinic acid]",5.55%,30%,−17.29%
